Data on 7 molecules can be found in patent US5077309A, “Prostaglandins” (National Research Development Corporation, priority 1986, dated 1991).

In data set [1] the target is T1, human platelet system (thromboxane receptor sites) (Homo sapiens, UniProt P21731).
T1 construct: Washed platelets are prepared by centrifugation; endogenous in cells; host or cells: washed human platelets
T1 sequence (P21731 1-343): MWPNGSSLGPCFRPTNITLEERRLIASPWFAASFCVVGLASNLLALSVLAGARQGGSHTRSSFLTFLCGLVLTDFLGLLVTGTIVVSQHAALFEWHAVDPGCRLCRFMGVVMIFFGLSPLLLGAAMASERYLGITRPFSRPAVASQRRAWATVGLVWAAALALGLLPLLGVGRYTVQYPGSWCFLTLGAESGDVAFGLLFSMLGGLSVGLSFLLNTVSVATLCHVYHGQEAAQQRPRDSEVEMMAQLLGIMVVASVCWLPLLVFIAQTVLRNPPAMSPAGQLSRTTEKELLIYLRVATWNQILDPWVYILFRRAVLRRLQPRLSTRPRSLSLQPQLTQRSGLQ
Put plainly: Human platelet system: antagonism of 11,9-(epoxymethano) PGH2-induced aggregation of washed platelets (Gaddum-Schild KB). Type of data set: cell-based. The following applies: agonist 11,9-(epoxymethano) PGH2, compound added 5 minutes before agonist, read-out: affinity constant KB (converted). Here is the method: Washed platelets are prepared by centrifugation of plateletrich human plasma at 600×g for 20 minutes. The platelet pellet is resuspended in Ca^++ -free Kreb's solution.
Addition of the agonist 11.9-(epoxymethano) PGH2 (1×10^-7 to 5×10^-7 M) causes immediate aggregation recorded as an increase in light transmission (600 nm). In a second experiment the compound under test is added 5 minutes previous to the addition of the PGH2 analogue. The dose of the PGH2 analogue added is then increased to a level which gives a similar response to that obtained in the absence of antagonist.
(§1) In the case of each system, the affinity constant, KB, for the compound under test is calculated according to the Gaddum-Schild equation (based on Law of Mass Action). [formula]

In the next data set the test system is human platelet system. Briefly: Prostacyclin-like activity in human platelet system (antagonism of ADP). Format: cell-based.
Another data set deals with T2, rabbit aorta (Oryctolagus cuniculus, UniProt Q6WQI8).
T2 construct: functional antagonism of U46619 contraction
T2 sequence (Q6WQI8 1-233): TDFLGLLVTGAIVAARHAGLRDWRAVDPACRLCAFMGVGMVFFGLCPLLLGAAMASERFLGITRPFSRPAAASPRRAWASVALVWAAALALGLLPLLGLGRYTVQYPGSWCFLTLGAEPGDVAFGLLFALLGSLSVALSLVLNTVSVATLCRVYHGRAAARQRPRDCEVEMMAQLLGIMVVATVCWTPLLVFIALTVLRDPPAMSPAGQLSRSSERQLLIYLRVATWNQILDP
Put plainly: Rabbit aorta system: antagonism of 11,9-(epoxymethano) PGH2 tension response in thoracic aorta strips (Gaddum-Schild KB). Format: cell-based. The settings on record: agonist 11,9-(epoxymethano) PGH2; compound added 30 minutes before agonist; head KB × 10^-6. Here is the method: Spiral strips of thoracic aorta are suspended in Kreb's Henseleit solution and aerated with 95% O2 /5% CO2 at 37° C. Tension changes are recorded with a Grass FT03 force transducer. Initially, cumulative dose response curves to 11,9-(epoxymethanol) PGH2 (2×10^-9,1×10^-8, […] and 2.5×10^-7 M) are obtained. In a second experiment the individual compounds are added 30 minutes previous to the addition of the series of agonist doses.
as §1

The subject of data set [2] is guinea pig bronchoconstriction. Briefly: Modified Konzett-Rossler test: inhibition of PGH2 analogue-induced bronchoconstriction in anaesthetised guinea pig. Type of data set: in vivo. Here is the method: A male albino guinea pig is anaethetised with a mixture of allyl barbituric acid and ethyl carbamate and the guinea pig is given intravenously a dose of 0.35 μg/kg of 11,9-(epoxymethane) PGH2. After a further period of 10 minutes, the guinea pig is treated intravenously with a dose of 0.3 mg/kg of trans-5-(6'-carboxy-5'-oxahexyl)-6-(1'-[N-phenylthiocarbamoyl-hydrazono]-ethyl-bicyclo [2,2,2] octane.
The guinea pig is then used in a modified Konzett-Rossler test which gives a measure of the inhibition produced by the test compound of the bronchoconstiction resulting from administration of the PGH2 derivative. This test involves artificially respiring the animals and measuring the amount of residual air with a pressure transducer.

The target of a further data set is T3, guinea pig trachea (Cavia porcellus, UniProt A0A286Y4I8).
T3 construct: from tissue; host or cells: guinea pig trachea, spiral strips
T3 sequence (A0A286Y4I8 1-347): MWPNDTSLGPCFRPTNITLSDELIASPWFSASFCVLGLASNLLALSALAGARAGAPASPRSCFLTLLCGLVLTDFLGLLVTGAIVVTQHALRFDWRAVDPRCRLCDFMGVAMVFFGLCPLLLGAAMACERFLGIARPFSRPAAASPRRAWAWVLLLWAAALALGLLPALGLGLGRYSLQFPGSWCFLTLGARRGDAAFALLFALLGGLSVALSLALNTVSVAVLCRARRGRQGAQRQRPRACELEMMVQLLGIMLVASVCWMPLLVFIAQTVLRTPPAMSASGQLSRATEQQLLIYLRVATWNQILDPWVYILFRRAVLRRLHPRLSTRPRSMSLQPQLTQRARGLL
Briefly: Guinea pig trachea system: antagonism of 11,9-(epoxymethano) PGH2 tension response in trachea strips (Gaddum-Schild KB). Type of data set: cell-based. The settings on record: agonist 11,9-(epoxymethano) PGH2; compound added 50 minutes before agonist; head KB × 10^-6. As to the method:
Spiral strips of trachea are suspended in Kreb's-Henseleit solution, additionally containing atropine sulphate (2×10^-8 M) and indomethacin (10^-6 M), aerated with 95% O2 /5% CO2 and maintained at 37° C. Tension changes are recorded with a Grass FT03 force transducer. Initially, cumulative dose response curves to the agonist 11,9-(epoxymethano) PGH2 are obtained (typically at the same concentrations as for the rabbit aorta system). In a second experiment, the compound under test is added 50 minutes previous to the addition of the series of agonist doses.
as §1

By Kb is commonly meant the affinity of an antagonist, worked out from how it opposes an agonist. On to `CC(=NNC(=S)Nc1ccccc1)[C@@H]1[C@H]2CC[C@H](C2)[C@H]1C/C=C\CCCC(=O)O` (relative stereo) [5-endo-(6'-carboxyhex-2'-Z-enyl)-6-exo-(1'-[N-(phenylthiocarbamoyl)-hydrazono]-ethyl-bicyclo [2,2,1]heptane, reference compound], for which the antagonist equilibrium constant (Kb) in data set [1] was 14.3 nM.
In the case of `CC(=NOC(c1ccccc1)c1ccccc1)[C@@H]1C2CCC(CC2)[C@H]1CCCCOCC(=O)O` (relative stereo) [Example 3, trans-5-(6'-Carboxy-5'-oxahexyl)-6-[1'-(O-diphenylmethoxyimino)ethyl]-bicyclo [2,2,2] octane], the “prostacyclin-like activity as evidenced by antagonism of ADP” value in the data set with human platelet system is listed as “very little prostacyclin-like activity”.
Consider `CC(=NNC(=S)Nc1ccccc1)[C@@H]1C2CCC(CC2)[C@H]1CCCCOCC(=O)O` (relative stereo) [Example 4, trans-5-(6'-Carboxy-5'-oxahexyl)-6-(1'-[N-(phenylthiocarbamoyl)-hydrazono]-ethyl)-bicyclo [2,2,2] octane], for which the antagonist equilibrium constant (Kb) in data set [1] was 4.76 nM; at rabbit aorta it was 167 nM. Further, the “inhibition of bronchoconstriction resulting from the PGH2 analogue” value in data set [2] (0.3 mg/kg intravenous, 11,9-(epoxymethano) PGH2 0.35 μg/kg i.v.) is reported as “markedly blocked the action of the PGH2 analogue”. The “bronchoconstriction caused by compound itself” value in data set [2] (0.3 mg/kg, control without prior administration of PGH2 analogue) is listed as “did not itself lead to any observable bronchoconstriction”.
As for `COc1ccc(NC(=O)NN=C(C)[C@@H]2C3CCC(CC3)[C@H]2CCCCOCC(=O)O)cc1` (relative stereo) [Example 5, trans-5-(6'-Carboxy-5'-oxahexyl)-6-(7'-[N-(p-methoxyphenyl-carbamoyl)-hydrazono]-ethyl)-bicyclo [2,2,2] octane], on guinea pig trachea, the antagonist equilibrium constant (Kb) is roughly 0.25 nM.
Same read-out and setting: with `CCCCCCNC(=S)NN=C(C)[C@@H]1C2CCC(CC2)[C@H]1CCCCOCC(=O)O` (relative stereo) [Example 6, trans-5-(6'-Carboxy-5'-oxahexyl)-6'-(1'-[N-(hexylthiocarbamoyl)-hydrazono]-ethyl)-bicyclo [2,2,2] octane] the figure was 14.3 nM.
Regarding `CC(=NNC(=S)Nc1ccccc1)[C@@H]1C2CCC(CC2)[C@H]1CCCCCOCC(=O)O` (relative stereo) [Example 8, trans-5-(7'-Carboxy-6'-oxaheptyl)-6-(1'-[N-(phenylthiocarbamoyl)-hydrazano]-ethyl)-bicyclo [2,2,2] octane], the Kb was 192 nM at rabbit aorta and 3.7 nM on guinea pig trachea.
The corresponding values for `O=C(O)COCCOC[C@@H]1[C@@H]2CC[C@@H](C2)[C@H]1C=NOC(c1ccccc1)c1ccccc1` (relative stereo) [Example 10] are 294 nM and 17.9 nM.
